From patent US10464896B2, “Efflux-pump inhibitors and therapeutic uses thereof” (Basilea Pharmaceutica International AG, priority 2015, dated 2019) come the findings set out here.

The first experiment relates to E. coli ATCC25922. In words: Antibacterial activity in combination with minocycline (growth inhibition). The following applies: Escherichia coli, ATCC25922, compound at 25 μM; minocycline 0.25 μg/mL; OD625 23 h minus 1 h; read-out: residual growth of E. coli ATCC25922 (% of uninhibited control) with minocycline. It is filed as cell-based. In outline:
(§1)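 Test compound combined with fixed subinhibitory partner antibiotic: linezolid 128 μg/mL for either strain, minocycline 0.25 μg/mL (E. coli) or 8 μg/mL (P. aeruginosa), in caMHB shaken at 37 °C. Residual growth as % of inhibitor-free control, from OD625 at 23 h minus 1 h.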
Turning to `O=c1[nH]nc(COc2cc(/C=C/c3ccc(Cl)cc3Br)cc(CNCC3CCNC3)c2)o1` (centres unmarked) [Example 381], the activity at 25 µM is at most 10%.

For the compound `CC(C)COc1cc(C[N+](C)(C)CC2CNC2)cc(OCc2ccc(Cl)cc2Br)c1` [Example 382], the activity at 25 µM was at most 10%.

Turning to `C=CCOc1cc(C[N+](C)(C)CC2CCNC2)cc(OCc2ccc(Cl)cc2Br)c1` (centres unmarked) [Example 388], the activity at 25 µM is at most 10%.

With `NC(=O)CCOc1cc(/C=C/c2ccc(Cl)cc2Br)cc(CNCC2CCNC2)c1` (centres unmarked) [Example 390], the activity at 25 µM is at most 10%.

Take `C=CCOc1cc(CNCC2CNC2)cc(C(=O)Nc2nc(C(C)(C)C)cs2)c1` [Example 392]: the activity at 25 µM is at most 10%.

Consider `C=CCOc1cc(CNCC2CNC2)cc(C(=O)Nc2ccc(Cl)cc2Br)c1` [Example 394, 3-allyloxy-5-[(azetidin-3-ylmethylamino)methyl]-N-(2-bromo-4-chloro-phenyl)benzamide], for which the activity at 25 µM was at most 10%.

As to `C=CCOc1cc(C[N+](C)(C)CC2CNC2)cc(OCc2ccc(Cl)cc2Br)c1` [Example 395], the activity at 25 µM is at most 10%.

Regarding `C=CCOc1cc(/C=C/c2ccc(Cl)cc2Br)cc(C[N+](C)(C)CC2CCNC2)c1` (centres unmarked) [Example 396], the activity at 25 µM is at most 10%.

As for `CC(C)COc1ccc(/C=C/c2ccc(Br)cc2Cl)cc1CNCC1CCNC1` (centres unmarked) [Example 397], the activity at 25 µM is at most 10%.

As for `C[N+](C)(Cc1cc(/C=C/c2ccc(Cl)cc2Br)cc(OCCc2c[nH]cn2)c1)CC1CCNC1` (centres unmarked) [Example 398], the activity at 25 µM is at most 10%.

On to `CC(C)(C)c1ccc(S(=O)(=O)Nc2ccc(CNCC3CCNC3)cc2OCCc2c[nH]cn2)cc1` (centres unmarked) [Example 399, 4-tert-butyl-N-[2-[2-(1H-imidazol-4-yl)ethoxy]-4-[(pyrrolidin-3-ylmethylamino)methyl]phenyl]benzenesulfonamide], for which the activity at 25 µM is at most 10%.

Turning to `CC(C)COc1ccc(/C=C/c2ccc(Br)cc2Cl)cc1CNCC1CNC1` [Example 401], the activity at 25 µM was at most 10%.

Turning to `C=CCOc1cc(/C=C/c2ccc(Cl)cc2Br)cc(C[N+](C)(C)CC2CNC2)c1` [Example 402], the activity at 25 µM is at most 10%.

On to `C=CCOc1ccc(OCc2ccc(Br)cc2Cl)cc1CNCC1CCNC1` (centres unmarked) [Example 405], for which the activity at 25 µM is at most 10%.

Consider `C=CCOc1ccc(OCc2ccc(Br)cc2Cl)cc1CNCC1CNC1` [Example 406], for which the activity at 25 µM was at most 10%.

For `C=CCOc1ccc(/C=C/c2ccc(Br)cc2Cl)cc1CNCC1CCNC1` (centres unmarked) [Example 407], the activity at 25 µM is at most 10%.

In the case of `C[N+](C)(Cc1cc(/C=C/c2ccc(Cl)cc2Br)cc(OCCc2c[nH]cn2)c1)CC1CNC1` [Example 408], the activity at 25 µM was at most 10%.

Turning to `C=CCOc1ccc(OCc2ccc(Cl)cc2Br)cc1CNCC1CCNC1` (centres unmarked) [Example 412], the activity at 25 µM was at most 10%.

Consider `C=CCOc1ccc(OCc2ccc(Cl)cc2Br)cc1CNCC1CNC1` [Example 413], for which the activity at 25 µM is at most 10%.

As to `CC(C)COc1ccc(OCc2ccc(Cl)cc2Br)cc1CNCC1CCNC1` (centres unmarked) [Example 416], the activity at 25 µM was at most 10%.

Turning to `C=CCOc1ccc(/C=C/c2ccc(Cl)cc2Br)cc1CNCC1CCNC1` (centres unmarked) [Example 419], the activity at 25 µM is at most 10%.

As for `C=CCOc1ccc(/C=C/c2ccc(Cl)cc2Br)cc1CNCC1CNC1` [Example 421], the activity at 25 µM is at most 10%.

For `CC(C)COc1ccc(OCc2ccc(Cl)cc2Br)cc1CNCC1CNC1` [Example 422], the activity at 25 µM was at most 10%.

With `O=c1[nH]nc(CCOc2cc(/C=C/c3ccc(Cl)cc3Br)cc(CNCC3CCNC3)c2)o1` (centres unmarked) [Example 429], the activity at 25 µM is at most 10%.

As to `Cc1noc(C)c1CCOc1cc(/C=C/c2ccc(Cl)cc2Br)cc(CNCC2CCNC2)c1` (centres unmarked) [Example 430], the activity at 25 µM is at most 10%.

For the compound `CC(C)COc1ccc(/C=C/c2ccc(Cl)cc2Br)cc1CNCC1CCNC1` (centres unmarked) [Example 431], the activity at 25 µM is at most 10%.

Consider `Cc1n[nH]c(C)c1CCOc1cc(/C=C/c2ccc(Cl)cc2Br)cc(CNCC2CCNC2)c1` (centres unmarked) [Example 433], for which the activity at 25 µM was at most 10%.

With `C=CCOc1cc(/C=C/c2ccc(Cl)cc2Br)cc(CNCC(=O)NCC2CNC2)c1` [Example 443], the activity at 25 µM is at most 10%.

For `C=CCOc1cc(/C=C/c2ccc(Cl)cc2Br)cc(C[N+](C)(C)CC(=O)NCC2CNC2)c1` [Example 444], the activity at 25 µM is at most 10%.

Consider `N#Cc1cncc(/C=C/c2cc(OCc3ccccc3)cc(CNCC3CCNC3)n2)c1` (centres unmarked) [Example 446], for which the activity at 25 µM is at most 10%.

With `C=CCOc1cc(/C=C/c2ccc(Cl)cc2Br)cc(CN(CC2CNC2)CC2CNC2)c1` [Example 448], the activity at 25 µM was at most 10%.

With `C=CCOc1cc(/C=C/c2ccc(Cl)cc2Br)cc(CNCCNC(=O)C2CNC2)c1` [Example 450], the activity at 25 µM was at most 10%.

Consider `C=CCOc1cc(/C=C/c2ccc(Cl)cc2Br)cc(C(=O)NCCNCC2CNC2)c1` [Example 451], for which the activity at 25 µM was at most 10%.

On to `C=CCOc1cc(/C=C/c2ccc(Cl)cc2Br)cc(CNC(=O)C[N+](C)(C)CC2CNC2)c1` [Example 452], for which the activity at 25 µM is at most 10%.

With `C=CCOc1cc(/C=C/c2ccc(Cl)cc2Br)cc(CNCCNCC2CNC2)c1` [Example 453], the activity at 25 µM is at most 10%.

For the compound `C=CCOc1cc(/C=C/c2ccc(Cl)cc2Br)cc(CNCCN(CC2CNC2)CC2CNC2)c1` [Example 455], the activity at 25 µM is at most 10%.

As to `C=CCOc1cc(/C=C/c2ccc(Cl)cc2Br)cc(C(=O)N(CC2CNC2)CC2CNC2)c1` [Example 456], the activity at 25 µM is at most 10%.

For `C=CCOc1cc(/C=C/c2cncc(C(=O)OC)c2)cc(CNCC2CCNC2)c1` (centres unmarked) [Example 457], the activity at 25 µM was at most 10%.

With `CC(C)COc1cc(/C=C/c2cccnc2)cc(C[N+](C)(C)CC2CCNC2)c1` (centres unmarked) [Example 459], the activity at 25 µM is at most 10%.

As for `CC(C)COc1cc(/C=C/c2cncc(C#N)c2)cc(C[N+](C)(C)CC2CCNC2)c1` (centres unmarked) [Example 460], the activity at 25 µM is at most 10%.

For `Clc1ccc(COc2ccc(OCCc3c[nH]cn3)c(CNCC3CCNC3)c2)c(Br)c1` (centres unmarked) [Example 463], the activity at 25 µM was at most 10%.

With `Clc1ccc(/C=C/c2ccc(OCCc3c[nH]cn3)c(CNCC3CCNC3)c2)c(Br)c1` (centres unmarked) [Example 464], the activity at 25 µM was at most 10%.

For the compound `Clc1ccc(COc2ccc(OCCc3c[nH]cn3)c(CNCC3CNC3)c2)c(Br)c1` [Example 465], the activity at 25 µM is at most 10%.

`Clc1ccc(/C=C/c2ccc(OCCc3c[nH]cn3)c(CNCC3CNC3)c2)c(Br)c1` [Example 471]: the activity at 25 µM was at most 10%.

Turning to `Clc1ccc(/C=C/c2cc(OCCCNCC3CNC3)cc(OCCc3ccncc3)c2)c(Br)c1` [Example 509], the activity at 25 µM was at most 10%.

Consider `Cc1cc(COc2ccc(OCCCNCC3CNC3)c(/C=C/c3ccc(Cl)cc3Br)c2)no1` [Example 512], for which the activity at 25 µM was at most 10%.

`CC(C)COc1ccc(/C=C/c2ccc(Cl)cc2Br)cc1OCCCNCC1CNC1` [Example 513]: the activity at 25 µM was at most 10%.

As to `O=C(NCCNC(=O)C1CNC1)c1cc(/C=C/c2ccc(Cl)cc2Br)cc(OCCc2ccncc2)c1` [Example 515], the activity at 25 µM was at most 10%.

Regarding `Clc1ccc(/C=C/c2cc(OCCCCNCC3CNC3)cc(OCCc3ccncc3)c2)c(Br)c1` [Example 517], the activity at 25 µM was at most 10%.

Regarding `O=C(NCCNCC1CNC1)c1cc(/C=C/c2ccc(Cl)cc2Br)cc(OCCc2ccncc2)c1` [Example 518], the activity at 25 µM was at most 10%.

For the compound `Clc1ccc(/C=C/c2cc(OCc3ccncc3)ccc2OCCCNCC2CNC2)c(Br)c1` [Example 519], the activity at 25 µM was at most 10%.

Turning to `Cc1cc(COc2ccc(/C=C/c3ccc(Cl)cc3Br)cc2CNC(=O)C2CCNC2)no1` (centres unmarked) [Example 523], the activity at 25 µM is at most 10%.

On to `Clc1ccc(/C=C/c2cc(OCCc3ccncc3)ccc2OCCCNCC2CNC2)c(Br)c1` [Example 525], for which the activity at 25 µM was at most 10%.

The experiment is the same for the next values; noted with them: Escherichia coli, ATCC25922, compound at 50 μM; minocycline 0.25 μg/mL; OD625 23 h minus 1 h; read-out: residual growth of E. coli ATCC25922 (% of uninhibited control) with minocycline.
As to `O=C(NCc1cc(CNCC2CCNC2)cc(OCCc2c[nH]cn2)c1)c1nc(C2CC2)cs1` (centres unmarked) [Example 391], the activity at 50 µM was at most 50%.

Consider `O=C(NCc1cc(CNCC2CCNC2)cc(OCCc2c[nH]cn2)c1)c1ccc(Cl)cc1Br` (centres unmarked) [Example 393], for which the activity at 50 µM is at most 50%.

With `C=CCOc1cc(CNCC2CNC2)cc(OCCc2ccccn2)c1` [Example 409], the activity at 50 µM was at most 50%.

As for `C=CCOc1cc(CNCC2CCNC2)cc(OCCc2ccccn2)c1` (centres unmarked) [Example 410], the activity at 50 µM was at most 50%.

For `C=CCOc1cc(CNCC2CNC2)cc(OCCc2cccnc2)c1` [Example 414], the activity at 50 µM is at most 50%.

For `C=CCOc1cc(CNCC2CCNC2)cc(OCc2cccnc2)c1` (centres unmarked) [Example 417], the activity at 50 µM was at most 50%.

For `C=CCOc1cc(CNCC2CCNC2)cc(OCCc2cccnc2)c1` (centres unmarked) [Example 418], the activity at 50 µM is at most 50%.

Regarding `C=CCOc1cc(CNCC2CNC2)cc(OCCc2ccncc2)c1` [Example 423], the activity at 50 µM was at most 50%.

On to `C(=C\c1cc(CNCC2CNC2)cc(OCCc2ccncc2)c1)/c1cccnc1` [Example 438], for which the activity at 50 µM was at most 50%.

Consider `CC(C)COc1cc(CNCC2CCNC2)cc(NC(=O)c2cccnc2)c1` (centres unmarked) [Example 485, N-[3-isobutoxy-5-[(pyrrolidin-3-ylmethylamino)methyl]phenyl]pyridine-3-carboxamide], for which the activity at 50 µM is at most 50%.

On to `C=CCOc1cc(/C=C/c2cncc(O)c2)cc(CNCC2CCNC2)c1` (centres unmarked) [Example 499], for which the activity at 50 µM was at most 50%.

The test system of the next experiment is P. aeruginosa PAO1. The experiment is described as above. The class given is cell-based. Conditions: Pseudomonas aeruginosa, PAO1, compound at 50 μM; minocycline 8 μg/mL; OD625 23 h minus 1 h; read-out: residual growth of P. aeruginosa PAO1 (% of uninhibited control) with minocycline. In outline:
as §1
In the case of `Clc1ccc(OCc2ccc(CNCC3CNC3)o2)c(Br)c1` [Example 93], the activity at 50 µM is at most 50%.
